Where only a bound is given, the exact number is not on record here.

A short description of this test: Kinase Assay: In vitro kinase assays were carried out by using recombinant murine c-abl containing SH3, SH2 and kinase domains (residues 46-531) and full length immunoprecipitated Bcr-abl. Recombinant abl was expressed in Sf9 insect cells and purified as described above. Bcr-abl immune complexes were obtained with Ab-3 anti-abl monoclonal antibody (Oncogene Science) from Ba/F3.p210 lysates as previously described. 1 μg of recombinant abl or immunoprecipitated Bcr-abl (from 3×10^6 cells) were incubated with various concentrations of test compound (0.1, 1 and 10 M) in kinase buffer (50 mM Tris-HCl pH 7.5, 10 mM MgCl2, […], 1 mM DTT, 0.015% Brij 35), 100 μM ATP and 1 μCi [γ-32P]-ATP for 30 min at 30° C. (Calbiochem buffer and protocol). The reaction was stopped by addition of Laemmli buffer and the proteins were resolved by SDS-PAGE in a 4-20% gel. The phosphoproteins were visualized by autoradiography and the autophosphorylation quantitated using a phosphoimager (STORM, Molecular Devices).
`COc1cc(-c2cc(Nc3ccc(OC(F)(F)F)cc3)ncn2)co1`: the IC50 – broadly, the concentration that gives 50% inhibition – worked out at 940 nM. Turning to `O=C(NCCN1CCOCC1)c1cc2c(Nc3ccc(OC(F)(F)F)cc3)ncnc2s1`, the half-maximal inhibitory concentration (IC50) is greater than 10000 nM. With `O=C(NC(=O)c1cc2c(Nc3ccc(OC(F)(F)F)cc3)ncnc2s1)c1cccc(C(F)(F)F)c1`, the IC50 amounted to 1440 nM.

For the origin of these results see ChEMBL document CHEMBL5725409, “Small molecule myristate inhibitors of Bcr-abl and methods of use” (2017).
